Measurements taken from patent US5344941A, “Water soluble salts of thionaphthene-2-carboxylic acid” (priority 1992, dated 1994).
Where a name gives a salt, the structure may show the parent alone.

Tests used:
[1] = Solubility in water and organic solvents
[2] = pH of a 5% aqueous solution of the salt; assay type: physicochemical
[3] = in vivo
Description: The utility of the salts, in a clinical treating sense, is equivalent to TNCA itself but they are far more useful, practically, for the reasons of amelioration of side effects and the high blood levels available via the oral route.

[4] = in vivo; remark: listed apart in the source
[5] = pK; assay type: physicochemical
[6] = tested on: mice; settings: cited from earlier work
[7] = Acute toxicity (LD50) by oral route and by injection; settings: mouse, in vivo
[8] = tested on: mice; test: as above; settings: oral vs intraperitoneal
[9] = tested on: rats made hypercalcemic by the injection of Leydig-cell carcinoma-tumor material; test: Reduction of blood calcium levels of rats made hypercalcemic by injection of Leydig-cell carcinoma-tumor material; assay type: in vivo
Description: The following tables (Experiments I and II) illustrate the effectiveness of the present invention in reducing the blood calcium levels of rats made hypercalcemic by the injection of Leydig-cell carcinoma-tumor material. For details of the methodology employed in these studies, see: Johannesson et al., Endocrinology 117/4: 1508-1511 (1985). Normal calcium blood levels are in the range of 9-10 mg/dL.
In the table, n=number of rats evaluated at each dosage and in controls while S.D.=standard deviation. These higher initial values reflect Leydig cell-induced hypercalcemia. Data for final calcium levels show the decreases in calcium levels produced following administration of the lysine salt of TNCA.

In the case of `O=C(O)c1cc2ccccc2s1` [Example 7], the “Water solubility (in words)” value ([1]; water) is reported as “water-insoluble”.
With `O=C(O)c1cc2ccccc2s1` [Example 6, Sodium salt of TNCA] the “Water solubility (in words)” value ([1]; water) was “water-insoluble” and the “Water solubility (in words)” value ([1]; water, listed as sodium) was “mainly insoluble in water”.
For `O=C(O)c1cc2ccccc2s1` [Example 3, Ammonium salt of TNCA], the “pH of a 5% aqueous solution” value [2] was 6.05 and the “Water solubility (in words)” value ([1]; water) was “water-soluble”.
In the case of `O=C(O)c1cc2ccccc2s1` [Example 5, Piperidine salt of TNCA], the “pH of a 5% aqueous solution” value [2] is reported as 6.4 and the “Water solubility (in words)” value ([1]; water) is reported as “moderately water-soluble”.
With `O=C(O)c1cc2ccccc2s1` [potassium, potassium salt of TNCA] the “Water solubility (in words)” value ([1]; water) was “mainly insoluble in water”.
For `O=C(O)c1cc2ccccc2s1` [Example 4, Arginine salt of TNCA], the “pH of a 5% aqueous solution” value [2] was 5.8, the “Solubility in ethanol (ethyl alcohol)” value [1] was “soluble” and the “Solubility in methanol (methyl alcohol)” value [1] was “soluble”. For the same compound, the “Water solubility (in words)” value ([1]; water) was “water-soluble”.
With `C[C@H](N)C(=O)O` [L-alanine] the “Water solubility (in words)” value ([1]; water) was “No water-soluble reaction product is formed”.
With `O=C(O)c1cc2ccccc2s1` [Example 2] the “pH of a 5% aqueous solution” value [2] was 6.77 and the “Water solubility (in words)” value ([1]; water) was “water-soluble”.
In the case of `O=C(O)c1cc2ccccc2s1` [TNCA, benzo(b)thiophene-2-carboxylic acid, reference compound], the “Absorption from the gastrointestinal tract / following oral administration” value [3] is reported as “poorly absorbed from the gastrointestinal tracts”, the Gastric irritation [4] is reported as “causes gastric irritation, resulting in vomiting and bleeding” and the pKa [5] is reported as 3.4. For the same compound, the LD50 by injection ([6]; by injection, value repeated in text) was 1450 mg/kg, the LD50 ([6]; mice, oral, TNCA in gum tragacanth) was 3600 mg/kg and the “Solubility in methanol (methyl alcohol)” value [1] was “soluble in methanol”.
In the case of `O=C(O)c1cc2ccccc2s1` [Example 1, Benzo(b)thiophene-2-carboxylic acid L-Lysine salt], the “Absorption from the gastrointestinal tract / following oral administration” value [3] is reported as “readily absorbed following oral administration”, the LD50 [7] is reported as ~1300 mg/kg and the LD50 ([7]; po) is reported as ~1500 mg/kg. The “LD50 given orally compared to that obtained when administered intraperitoneally” value [8] was “almost equivalent”, the Gastric irritation [4] was “prevents the adverse effects associated with gastric irritation” and the “pH of a 5% aqueous solution” value [2] was 5.75. For the same compound, the “Initial calcium levels (mean)” value ([9]; Experiment 1, 195 mg/kg group, N=8, initial (before treatment)) was 12.28 mg/dL, the “Final calcium levels (mean)” value ([9]; Experiment 1, 195 mg/kg, N=8, control 17.38) was 14.85 mg/dL and the “Initial calcium levels (mean)” value ([9]; Experiment 1, 292 mg/kg group, N=9, initial (before treatment)) was 13.31 mg/dL. For the same compound, the “Final calcium levels (mean)” value ([9]; Experiment 1, 292 mg/kg, N=9, control 17.38) was 11.54 mg/dL, the “Initial calcium (mean)” value ([9]; Experiment 2, 195 mg/kg group, N=6, initial (before treatment)) was 14.07 mg/dL and the “Final calcium levels (mean)” value ([9]; Experiment 2, 195 mg/kg, N=6, control 18.03) was 13.27 mg/dL. For the same compound, the “Initial calcium (mean)” value ([9]; Experiment 2, 292 mg/kg group, N=6, initial (before treatment)) was 14.68 mg/dL, the “Final calcium levels (mean)” value ([9]; Experiment 2, 292 mg/kg, N=6, control 18.03) was 11.00 mg/dL and the “Initial calcium (mean)” value ([9]; Experiment 2, 389 mg/kg group, N=10, initial (before treatment)) was 13.80 mg/dL. For the same compound, the “Final calcium levels (mean)” value ([9]; Experiment 2, 389 mg/kg, N=8, control 18.03) was 10.16 mg/dL, the “Decrease in calcium levels, dose relation” value ([9]; Experiments 1 and 2) was “clearly does-related in both experiments” and the “Type of calcium-lowering activity” value ([9]; Experiments 1 and 2) was “anti-hypercalcemic, rather than hypocalcemic”. For the same compound, the “Serum calcium levels following treatment” value ([9]; relative to pretreatment / normal levels) was “returned to pretreatment levels, but not to below normal values”, the “Solubility in ethanol (ethyl alcohol)” value [1] was “insoluble” and the “Solubility in methanol (methyl alcohol)” value [1] was “insoluble”. For the same compound, the Solubility in toluene ([1]; toluene) was “insoluble” and the solubility ([1]; water) was 700 mg/mL.
